Tests used:
Format in all cases: functional, cell-based
HeLa [1] = assay: Antiviral activity against wild type HIV1 in HeLa-JC53 cells; settings: Homo sapiens
HeLa [2] = assay: Antiviral activity against HIV1 K103N-Y181C mutant in HeLa-JC53 cells
HeLa [3] = assay: Antiviral activity against HIV1 Y188L mutant in HeLa-JC53 cells
HeLa [4] = assay: Cytotoxicity against human HeLa-JC53 cells

Row | SMILES | EC50 (HeLa [1]) [nM] | EC50 (HeLa [2]) [nM] | EC50 (HeLa [3]) [nM] | Activity (HeLa [4])
1 | O=C1Nc2ccc(Cl)cc2[C@@](C#CC2CC2)(C(F)(F)F)O1 [EFAVIRENZ] | 0.4 | 11 | 73 | –
2 | Cc1ccc(NC(=O)CSc2nnc(C)n2-c2ccc(Cl)c3ccccc23)c(Cl)c1 | 1 | 190 | 320 | –
3 | Cc1cc(-n2c(C)nnc2SCC(=O)Nc2ccccc2Br)c2ccccc2c1C | 0.5 | 31 | 97 | –
4 | Cc1ccc(-n2c(C)nnc2SCC(=O)Nc2ccccc2Br)c2ccccc12 | 0.6 | 14 | 69 | –
5 | Cc1cc(C)c2ccccc2c1-n1c(C)nnc1SCC(=O)Nc1ccc(S(N)(=O)=O)cc1Cl | 0.1 | – | 4 | Not toxic
6 | CCc1ccc(-n2c(C)nnc2SCC(=O)Nc2ccccc2Br)c2ccccc12 | 0.5 | 22 | 58 | –
7 | CN(C)c1ccc(-n2c(SCC(=O)Nc3ccc(S(N)(=O)=O)cc3Cl)nnc2C(F)(F)F)c2ccccc12 | 2 | – | 7 | Not toxic
8 | Cc1ccc2c(C)ccc(-n3c(C)nnc3SCC(=O)Nc3ccc(S(N)(=O)=O)cc3Cl)c2c1 | 0.6 | – | 6 | Not toxic
9 | Cc1ccc(NC(=O)CSc2nnc(C)n2-c2c(C)ccc3ccccc23)c(Cl)c1 | 1 | 60 | 200 | –
10 | Cc1ccc(-n2c(C)nnc2SCC(=O)Nc2ccc(C(C)C)cc2Br)cc1 | 140 | > 10000 | – | –
11 | Cc1ccc(-n2c(C)nnc2SCC(=O)Nc2ccccc2C(F)(F)F)cc1 | 7 | > 10000 | – | –
12 | Cc1ccc(NC(=O)CSc2nnc(C)n2-c2ccc(C)c3ccccc23)c(Cl)c1 | 1 | 16 | 100 | –
13 | CCc1ccc(-n2c(C)nnc2SCC(=O)Nc2ccc(C)cc2Cl)c2ccccc12 | 1 | 32 | 110 | –
14 | CCc1nnc(SCC(=O)Nc2ccc(C)cc2Br)n1-c1ccc(C)cc1 | 0.1 | 2500 | – | –
15 | CSc1ccccc1NC(=O)CSc1nnc(C)n1-c1ccc(C)cc1 | 0.6 | 120 | – | –
16 | CCc1ccc(-n2c(C)nnc2SCC(=O)Nc2ccc(C)cc2Cl)cc1 | 0.2 | 60 | – | –
17 | Cc1ccc(-n2c(C)nnc2SCC(=O)Nc2ccccc2Br)cc1 | 0.4 | 76 | – | –
18 | Cc1ccc2ccccc2c1-n1c(C)nnc1SCC(=O)Nc1ccccc1Br | 1 | 65 | 210 | –
19 | COc1ccc(-n2c(C)nnc2SCC(=O)Nc2ccccc2Br)c2ccccc12 | 0.7 | 93 | 460 | –
20 | Cc1ccc(NC(=O)CSc2nnc(C)n2-c2ccccc2)c(Br)c1 | 100 | 1300 | > 10000 | –
21 | Cc1ccc(-n2c(C)nnc2SCC(=O)Nc2ccccc2-c2ccccc2)cc1 | > 10000 | > 10000 | – | –
22 | Cc1nnc(SCC(=O)Nc2ccccc2Br)n1-c1ccc(Cl)c2ccccc12 | 0.8 | 130 | 200 | –
23 | Cc1ccc(-n2c(C)nnc2SCC(=O)Nc2cccc(C)c2C)cc1 | 60 | > 10000 | – | –
24 | Cc1ccc(NC(=O)CSc2nnc(C)n2-c2cccc3ccccc23)c(Cl)c1 | 4 | 54 | 590 | –
25 | Cc1ccc(-n2c(C)nnc2SCC(=O)Nc2cccc(Cl)c2)cc1 | > 10000 | > 10000 | – | –
26 | Cc1ccc(-n2c(C)nnc2SCC(=O)Nc2ccc(OC(F)(F)F)cc2Br)cc1 | 58 | > 10000 | – | –
27 | Cc1cc(C)c2ccccc2c1-n1c(C)nnc1SCC(=O)Nc1ccccc1Br | 1 | 70 | 89 | –
28 | Cc1ccc2c(C)cc(C)c(-n3c(SCC(=O)Nc4ccc(S(N)(=O)=O)cc4Cl)nnc3C(F)(F)F)c2n1 | 1 | – | 4 | Not toxic
29 | Cc1ccc(-n2c(C)nnc2SCC(=O)Nc2ccccc2I)cc1 | 0.5 | 220 | – | –
